Measured values taken from ChEMBL document CHEMBL1201862, “PubChem BioAssay data set” (2004).
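1) Cells in 96-well plates. 2) Compound, 48 h, 5 concentrations. 3) Linear interpolation between surrounding doses. 4) Unreached endpoint = highest concentration. GI50 is the concentration that inhibits growth by half.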 Active and inactive are the calls of the source. Rule as the data show it: active = GI50 up to about 1.1 µM and inactive = higher.

Assays:
Assay in all cases: NCI-60 cell line screen, 48 h
[1] = test system: KM12
[2] = test system: SF-268
[3] = test system: HL-60
[4] = test system: NCI-H460
[5] = test system: MDA-N
[6] = test system: EKVX
[7] = test system: UACC-62
[8] = test system: OVCAR-3
[9] = test system: MDA-MB-435
[10] = test system: HOP-62
[11] = test system: Malme-3M
[12] = test system: CCRF-CEM
[13] = test system: Hs-578T
[14] = test system: RXF 393
[15] = test system: ACHN
[16] = test system: UACC-257
[17] = test system: SNB-75
[18] = test system: HCC 2998
[19] = test system: SF-539
[20] = test system: SR

| SMILES | GI50 [1] | GI50 [2] | GI50 [3] | GI50 [4] | GI50 [5] | GI50 [6] | GI50 [7] | GI50 [8] | GI50 [9] | GI50 [10] | GI50 [11] | GI50 [12] | GI50 [13] | GI50 [14] | GI50 [15] | GI50 [16] | GI50 [17] | GI50 [18] | GI50 [19] | GI50 [20] |
| --- | --- | --- | --- | --- | --- | --- | --- | --- | --- | --- | --- | --- | --- | --- | --- | --- | --- | --- | --- | --- |
| C1#Cc2ccccc2OCCOc2ccccc2C#Cc2ccccc2OCCOc2ccccc21 | 68.2 µM (inactive) | 19.7 µM (inactive) | 61.2 µM (inactive) | 24.9 µM (inactive) | > 100 µM (inactive) | 26.5 µM (inactive) | > 100 µM (inactive) | 14 µM (inactive) | > 100 µM (inactive) | 8.77 µM (inactive) | 28.1 µM (inactive) | 18 µM (inactive) | 22.5 µM (inactive) | 14.7 µM (inactive) | 15 µM (inactive) | > 100 µM (inactive) | – | – | – | – |
| O=c1cnn(CCOCP(=O)(O)O)c(=O)[nH]1 | > 100 µM (inactive) | > 100 µM (inactive) | – | > 100 µM (inactive) | > 100 µM (inactive) | > 100 µM (inactive) | – | > 100 µM (inactive) | > 100 µM (inactive) | > 100 µM (inactive) | > 100 µM (inactive) | > 100 µM (inactive) | > 100 µM (inactive) | > 100 µM (inactive) | > 100 µM (inactive) | > 100 µM (inactive) | > 100 µM (inactive) | > 100 µM (inactive) | > 100 µM (inactive) | – |
| CC(C)CCCC(C)[C@H]1CC[C@H]2[C@@H]3CC[C@H]4C[C@@H](CCC=C(c5cc(Cl)c(O)c(C(=O)OC(C)(C)C)c5)c5cc(Cl)c(O)c(C(=O)OC(C)(C)C)c5)CC[C@]4(C)[C@H]3CC[C@]12C (stereo partly specified) | > 50 µM (inactive) | > 50 µM (inactive) | > 50 µM (inactive) | – | > 50 µM (inactive) | > 50 µM (inactive) | > 50 µM (inactive) | > 50 µM (inactive) | > 50 µM (inactive) | > 50 µM (inactive) | – | > 50 µM (inactive) | > 50 µM (inactive) | > 50 µM (inactive) | – | – | > 50 µM (inactive) | > 50 µM (inactive) | 15.7 µM (inactive) | – |
| c1ccc2c(c1)[n-]n1c3ccc4nonc4c3n[n+]21 | > 100 µM (inactive) | – | > 100 µM (inactive) | 93.3 µM (inactive) | > 100 µM (inactive) | > 100 µM (inactive) | > 100 µM (inactive) | > 100 µM (inactive) | > 100 µM (inactive) | 84.5 µM (inactive) | > 100 µM (inactive) | > 100 µM (inactive) | – | > 100 µM (inactive) | > 100 µM (inactive) | > 100 µM (inactive) | 56.1 µM (inactive) | > 100 µM (inactive) | > 100 µM (inactive) | > 100 µM (inactive) |
| Cc1c(N2C(=O)CS(=O)(=O)C2c2cccc(Oc3ccccc3)c2)c(=O)n(-c2ccccc2)n1C (stereo unspecified) | 19.4 µM (inactive) | 59.3 µM (inactive) | 14.1 µM (inactive) | 37.2 µM (inactive) | 24.8 µM (inactive) | 46.7 µM (inactive) | 66.2 µM (inactive) | 26.8 µM (inactive) | 36.9 µM (inactive) | 33.9 µM (inactive) | 0.512 µM (active) | 45.9 µM (inactive) | 30.9 µM (inactive) | 21.6 µM (inactive) | > 100 µM (inactive) | > 100 µM (inactive) | – | – | > 100 µM (inactive) | – |
| CCCO[C@@H]1[C@@H](OC(C)=O)[C@@H](OC(C)=O)C(C)(C)/C=C/[C@H](C)C(=O)[C@@]2(OC(C)=O)C[C@@](C)(OC(C)=O)[C@H](OC(C)=O)[C@@H]2[C@H]2OC(=O)CC[C@@]12OC(=O)c1ccccc1 | > 25 µM (inactive) | > 25 µM (inactive) | 2.64 µM (inactive) | 6.73 µM (inactive) | 14.9 µM (inactive) | > 25 µM (inactive) | > 25 µM (inactive) | > 25 µM (inactive) | 15.2 µM (inactive) | > 25 µM (inactive) | 17.5 µM (inactive) | 4.85 µM (inactive) | 12.1 µM (inactive) | > 25 µM (inactive) | > 25 µM (inactive) | > 25 µM (inactive) | > 25 µM (inactive) | 18.5 µM (inactive) | > 25 µM (inactive) | – |
| C/C=C1\NC(=O)[C@H]2CSSCCC=C[C@H](CC(=O)N[C@H](C(C)C)C(=O)N2)OC(=O)[C@H](C(C)C)NC1=O | 0.000154 µM (active) | 0.000318 µM (active) | – | 0.00124 µM (active) | 2.17e-05 µM (active) | 0.00102 µM (active) | 0.000188 µM (active) | 0.000412 µM (active) | 1e-05 µM (active) | 9.79e-05 µM (active) | – | 0.000117 µM (active) | 3.61e-05 µM (active) | 0.0008 µM (active) | 0.00452 µM (active) | – | 0.000207 µM (active) | < 0.01 µM (active) | 6.98e-05 µM (active) | – |
| COc1c(Cl)ccc(Cl)c1C(=O)NNC(=O)c1c(Cl)c(Cl)c(Cl)c(Cl)c1-c1nc2cc(C(=O)c3ccccc3)ccc2[nH]1 | 80.5 µM (inactive) | 34.3 µM (inactive) | 50.5 µM (inactive) | – | 33.3 µM (inactive) | 36.8 µM (inactive) | – | 30.5 µM (inactive) | 42.9 µM (inactive) | 82 µM (inactive) | 54.3 µM (inactive) | 28.8 µM (inactive) | 54.1 µM (inactive) | 19.5 µM (inactive) | 37.5 µM (inactive) | 76.6 µM (inactive) | > 100 µM (inactive) | – | > 100 µM (inactive) | 37.2 µM (inactive) |
| C=Cc1cc2c(cc1O)CC[C@@H]1[C@@H]2CC[C@]2(C)[C@@H](O)CC[C@@H]12 | 5.11 µM (inactive) | 4.16 µM (inactive) | 2.67 µM (inactive) | 3.94 µM (inactive) | 1.45 µM (inactive) | 7.38 µM (inactive) | – | – | 1.09 µM (active) | – | 2.18 µM (inactive) | 4.15 µM (inactive) | – | 2.56 µM (inactive) | 7.23 µM (inactive) | 4.15 µM (inactive) | 5.38 µM (inactive) | 11.2 µM (inactive) | 2.06 µM (inactive) | 1.97 µM (inactive) |
| NC(=O)C1CCN(Cc2c(Cl)c(Cl)c(CN3CCC(C(N)=O)CC3)c(Cl)c2Cl)CC1 | > 100 µM (inactive) | 44.7 µM (inactive) | > 100 µM (inactive) | > 100 µM (inactive) | – | 38.6 µM (inactive) | > 100 µM (inactive) | > 100 µM (inactive) | > 100 µM (inactive) | 11.6 µM (inactive) | 90.8 µM (inactive) | > 100 µM (inactive) | 49.9 µM (inactive) | 52.6 µM (inactive) | > 100 µM (inactive) | > 100 µM (inactive) | 24.3 µM (inactive) | > 100 µM (inactive) | 28.4 µM (inactive) | > 100 µM (inactive) |
| O=C(c1ccc(Cl)cc1)N(C(=O)N1CCC(c2ccccc2)CC1)c1ccccc1 | 11.4 µM (inactive) | 82 µM (inactive) | 17.1 µM (inactive) | – | 39.3 µM (inactive) | 10.4 µM (inactive) | 31.8 µM (inactive) | 44.8 µM (inactive) | 25.8 µM (inactive) | – | 10.4 µM (inactive) | 18.9 µM (inactive) | 24.2 µM (inactive) | 11.9 µM (inactive) | 57.8 µM (inactive) | 25.4 µM (inactive) | 1.83 µM (inactive) | – | 65 µM (inactive) | – |
